Experiments:
N2a [1] = test: Neuroprotective activity against OGD/R induced cell injury in mouse N2a cells assessed as cell viability at 10 uM preincubated under hypoxic condition for 2 hrs and measured after 24 hrs (reference value: 28.66 to 30.22 %); assay type: functional; details: time 26 hrs, read-out: Activity
[2] = Tmax in Sprague-Dawley rat at 10 mg/kg, po measured upto 8 hrs by LC-MS/MS analysis; assay type: ADME, organism-based; details: Sprague-Dawley, in vivo, read-out: Tmax
[3] = Cmax in Sprague-Dawley rat at 10 mg/kg, po measured upto 8 hrs by LC-MS/MS analysis; assay type: ADME, organism-based; details: Sprague-Dawley, in vivo, read-out: Cmax
[4] = AUC(0 to t) in Sprague-Dawley rat at 10 mg/kg, po measured upto 8 hrs by LC-MS/MS analysis; assay type: ADME, organism-based; details: in vivo
N2a [5] = test: Neuroprotective activity against OGD/R induced cell injury in mouse N2a cells assessed as decrease in apoptotic ratio at 10 uM incubated for 24 hrs; assay type: functional; set-up: scale not given: the % may be the effect or the level left
Mus musculus = test: Neuroprotective activity against tMCAO-reperfusion induced brain injury in SPF C57 mouse model assessed as reduction in infarct volume at 10 mg/kg, iv measured after 24 hrs; assay type: functional; set-up: scale not given: the % may be the effect or the level left
[6] = Half-life in Sprague-Dawley rat at 10 mg/kg, po measured upto 8 hrs by LC-MS/MS analysis; assay type: ADME, organism-based; details: Sprague-Dawley, in vivo
[7] = AUC(0 to infinity) in Sprague-Dawley rat at 10 mg/kg, po measured upto 8 hrs by LC-MS/MS analysis; assay type: ADME, organism-based; details: Sprague-Dawley, in vivo

SMILES | viability at 10 µM (N2a [1]) | Tmax [2] | Cmax [3] | AUC(0-t) at 8 h [4] | Activity (N2a [5]) | Activity (Mus musculus) | half-life [6] | AUC(0-inf) [7]
CCCCCC(O)c1ccc(Br)cc1-c1nn[nH]n1 (stereo not drawn) | 38% | 15 min | 13600 ng/mL | 2670 ng·h/mL |  |  |  | 
CCCCC(O)c1ccc(Br)cc1-c1nnn(CCN(C)C)n1 (stereo not drawn) | 44% |  |  |  |  |  |  | 
CCCCC(O)c1ccccc1-c1ccc[nH]1 (stereo not drawn) | 38.6% |  |  |  |  |  |  | 
CCCCC(O)c1ccc(Br)cc1-c1nnn(C2CC2)n1 (stereo not drawn) | 50.6% |  |  |  |  |  |  | 
CCCCC1OC(=O)c2ccccc21 (stereo not drawn) [RAC-3-N-BUTYLPHTHALIDE] | 36.6% |  |  |  | 130.83% | 25.43% |  | 
CCCCC(O)c1ccccc1-c1nnn(C)n1 (stereo not drawn) | 43.9% | 15 min | 13.1 ng/mL | 39.9 ng·h/mL |  |  | 433 min | 71.5 ng·h/mL
CCCCC(O)c1ccccc1-c1nn[nH]n1 (stereo not drawn) | 40.5% | 15 min | 12200 ng/mL | 26500 ng·h/mL |  |  | 279 min | 37100 ng·h/mL
CCCC(O)c1ccccc1-c1nn[nH]n1 (stereo not drawn) | 35.6% |  |  |  |  |  |  | 

From ChEMBL document CHEMBL5579827, “Discovery of orally bioavailable phenyltetrazolium derivatives for the acute treatment and the secondary prevention of ischemic stroke” (Eur J Med Chem, 2024)
